Reference: patent US11814352B2, “Salts formed by 2-(1-acyloxy-n-pentyl) benzoic acid and basic amino acid or aminoguanidine, and preparation method and application thereof” (JIANGSU KANION PHARMACEUTICAL CO., LTD., priority 2018, dated 2023)
Where “and” joins values, the source holds several entries; their conditions need not be identical. Equal entries are not always repeated. Marks after values point to notes of the source that are not given here.

Legend:
[1] = Solubility test (saturated solubility in water); format: physicochemical; conditions: 25±2° C.
Method: Test method: 10 mg of a test sample (solid was ground into fine powder) was weighed and added to a certain amount of solvent at 25±2° C. (the temperature of a water bath is controlled at 25° C.), and the solution was shaken vigorously for 30 s every 5 min. The dissolution was observed within 30 min. When there were no visible solute particles or droplets, the test sample was regarded as completely dissolved.

[2] = test system: ADP induced platelet aggregation; experiment: In vitro anti-platelet aggregation, ADP induced (turbidimetry, PRP); format: cell-based, rabbits; conditions: read-out: IC50 ADP (10 μM); rabbit PRP, inducer ADP 10 μM, 37° C.
Method: (§1) The animals were used for experiments after 1 week.
(§2) The common carotid artery was separated, and a polyethylene tube was inserted into the common carotid artery to collect blood. […] The upper beige suspension was pipetted to obtain the platelet-rich plasma (PRP). […] The PRP was adjusted with the PPP to make the platelet count at 1×10^8/mL.
(§3) 260 μL of platelet-rich plasma (PRP) was added into a turbidimetric tube. Then 10 μL of test compounds with different concentrations, positive control drugs or normal saline were separately added, and the plasma was incubated at 37° C. for 5 min. Then 30 μL of inducers were added in sequence. The final concentration of an inducer ADP is 10 μM, and the final concentration of an inducer AA is 1 mM. […] Inhibition rate of platelet aggregation (IRPA)=(platelet aggregation rate of the control group−platelet aggregation rate of the experimental group)/platelet aggregation rate of the control group×100%.

[3] = test system: AA induced platelet aggregation; experiment: In vitro anti-platelet aggregation, AA induced (turbidimetry, PRP); format: cell-based, rabbits; conditions: read-out: IC50 AA (1 mM); rabbit PRP, inducer AA 1 mM, 37° C.
Method: as §1, §2, §3

[4] = test system: arteriovenous bypass thrombosis in rats; experiment: Effect on arteriovenous bypass thrombosis in rats; format: in vivo, SD rats; conditions: 10 mg/kg/day tail vein 7 days
Method: Male SD rats, weighing 250-280 g, purchased from Beijing Vital River Laboratory Animal Technology Co., Ltd., raised in an SPF breeding environment with indoor temperature controlled at 23±2° C., and allowed to freely eat and drink. The total number of the animals is 64.
Model group: injected with the same volume of normal saline (containing 1% DMSO) through the tail vein, and administered continuously for 7 days. The test was started 2 h after the last dose (n=8).
The dose of all drugs was 10 mg/kg/day. The drugs were formulated into normal saline solutions containing 1% DMSO, and injected through the tail vein for 7 consecutive days. The test was started 2 hours after the last dose (n=8).
The rats were intraperitoneally injected with a 3% pentobarbital sodium solution (30 mg/kg). After anesthesia, the rats were immobilized in the supine position, and a median cervical incision was made to separate the right common carotid artery and left external jugular vein. A 6 cm long suture was put in the middle of a polyethylene tube (the suture needs to be weighed before being put in the tube), and the polyethylene tube was filled with heparin saline (50 U/mL). The polyethylene tube was inserted into the separated blood vessels to make the artery and vein form a loop. After 15 min of circulation of the blood flow, the suture was taken out, and the suture with thrombus was collected and weighed immediately. Then, after the suture was dried at room temperature for 24 h, the dry weight was determined. The total weight minus the weight of the suture was the wet weight of the thrombus, and the dry weight minus the weight of the suture was the dry weight of the thrombus.

MCAO rats = experiment: Cerebral infarction, cerebral edema and nerve function of rats with focal cerebral ischemia (MCAO); format: in vivo, SD rats; conditions: rat, in vivo, iv, 10 mg/kg/day
Method: The total number of the animals was 88.
Sham operation group: equal volume of normal saline (containing 1% DMSO) (iv. 3 days), TTC, cerebral edema and neurological function score (n=8); […]
The middle cerebral arteries of the rats were blocked by a suture-occluded method, and reperfused after 2 h. […] All drugs were formulated into normal saline solutions containing 1% DMSO for administration, and the duration of administration was controlled at approximately 1 min. […] 2 h after the last administration, the neurological defect scores were firstly obtained, and then the rats of each group were sacrificed. The whole brains were taken out and weighed (wet weight), TTC stained, and dried to determine the effects of the compounds on cerebral infarction and cerebral edema.
2 h after the last administration, the neurological defects of the animals were graded and scored by the Longa's method.
After the neurobehavioral examination was completed, four coronal incisions were made on the whole brains of the rats on the optic chiasma and 2 mm anteroposterior positions of the optic chiasma. After the whole brains were cut into five slices, the brain slices were quickly placed in 5 ml of phosphate buffer solution containing 2% TTC, and incubated at 37° C. in the dark. In the incubation process, the brain slices were turned once every 5 min. After 10 min of incubation, the brain slices were taken out and pictures were taken with a digital camera (Olympus C-4000, Japan).
The calculation formula of brain water content is as follows: Water content of brain tissue (%)=(wet weight of brain tissue−dry weight of brain tissue)/wet weight of brain tissue×100%; Cerebral edema rate (%)=water content of brain tissue of each group (%)−water content of brain tissue of sham operation group (%)/water content of brain tissue of sham operation group (%)×100%; Inhibition rate of cerebral edema (%)=(rate of cerebral edema of model group (%)−rate of cerebral edema of administration group (%))/rate of cerebral edema of model group (%)×100%.

[5] = Pharmacokinetics of metabolites in rat plasma after intravenous injection of I1s; format: in vivo, SD male rats; conditions: metabolite in rat plasma after I1s 25 mg/kg tail vein; rats 1-3; listed as M4
Method: (§4) 12 clean SD male rats, provided by Qinglongshan Animal Breeding Farm in Jiangning District, Nanjing. The production license number is SCXK (Jiangsu) 2017-0001. The body weight of the rats ranges from 180 to 220 g. The rats were used after being raised in the laboratory of an experimental animal center for 2 days after purchase, fasted for 12 hours before administration and 6 hours after administration, and were allowed to freely drink during the test period.
(§5) The concentration of the original drugs and metabolites in the rat blood were determined by LC-MS/MS, and WinNonlin pharmacokinetics professional software and a statistical moment method were used for calculation to obtain the corresponding pharmacokinetic parameters.

[6] = Concentration of metabolites in rat brain tissue after intravenous injection of I1s; format: in vivo; conditions: for Concentration in brain tissue (single rats): listed as M4
Method: as §4, §5

[7] = as above; format: in vivo
[8] = biological target: hERG potassium channel of CHO-hERG cells (Homo sapiens, UniProt Q12809); experiment: Effect on hERG potassium channel (automatic patch clamp); conditions: CHO-hERG cells, maximum concentration
Chain of hERG potassium channel of CHO-hERG cells (Q12809 whole entry): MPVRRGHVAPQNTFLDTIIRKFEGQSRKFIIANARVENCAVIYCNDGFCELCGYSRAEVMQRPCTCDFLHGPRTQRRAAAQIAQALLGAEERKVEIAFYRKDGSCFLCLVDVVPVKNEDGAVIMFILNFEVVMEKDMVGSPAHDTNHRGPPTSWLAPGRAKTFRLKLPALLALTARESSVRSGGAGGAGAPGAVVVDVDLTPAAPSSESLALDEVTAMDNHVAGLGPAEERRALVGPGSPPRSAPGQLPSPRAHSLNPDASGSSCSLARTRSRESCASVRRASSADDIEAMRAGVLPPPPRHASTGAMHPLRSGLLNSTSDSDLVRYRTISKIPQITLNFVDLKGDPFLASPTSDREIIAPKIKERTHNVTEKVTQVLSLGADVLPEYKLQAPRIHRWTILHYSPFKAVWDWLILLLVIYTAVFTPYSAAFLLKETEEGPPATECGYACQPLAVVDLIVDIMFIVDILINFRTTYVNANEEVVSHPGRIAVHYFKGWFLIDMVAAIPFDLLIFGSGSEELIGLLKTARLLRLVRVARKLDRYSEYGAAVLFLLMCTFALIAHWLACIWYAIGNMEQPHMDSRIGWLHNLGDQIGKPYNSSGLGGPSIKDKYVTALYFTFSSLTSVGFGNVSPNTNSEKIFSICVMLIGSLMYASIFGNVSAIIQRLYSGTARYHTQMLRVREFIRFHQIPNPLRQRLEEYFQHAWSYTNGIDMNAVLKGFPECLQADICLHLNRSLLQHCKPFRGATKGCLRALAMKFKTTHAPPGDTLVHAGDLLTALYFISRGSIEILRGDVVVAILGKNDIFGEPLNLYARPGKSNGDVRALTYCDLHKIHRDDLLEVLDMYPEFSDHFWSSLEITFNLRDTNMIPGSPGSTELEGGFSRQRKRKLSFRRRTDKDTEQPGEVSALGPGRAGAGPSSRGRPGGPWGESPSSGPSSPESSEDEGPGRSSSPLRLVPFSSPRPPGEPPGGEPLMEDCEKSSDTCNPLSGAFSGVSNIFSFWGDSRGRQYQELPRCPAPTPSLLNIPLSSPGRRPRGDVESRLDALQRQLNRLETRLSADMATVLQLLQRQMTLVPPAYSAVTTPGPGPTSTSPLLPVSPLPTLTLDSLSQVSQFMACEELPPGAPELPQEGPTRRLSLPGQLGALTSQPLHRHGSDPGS

[9] = 0.5 h after intravenous injection of I1s
[10] = 1 h after intravenous injection of I1s
[11] = 6 h after intravenous injection of I1s

- Saturated solubility in H2O, Mean [1]: 540 µg/mL
- IC50 [2]: 1290 ± 110 µM
- IC50 [3]: 500 ± 40 µM
- Concentration in brain tissue (single rats) [6, 11]: 27.06 ng/g and 30.85 ng/g and 51.78 ng/g
- Concentration in brain tissue, Mean [7, 9]: 605.79 ng/g
- Concentration in brain tissue, Mean [7, 10]: 125.75 ng/g
- Concentration in brain tissue, Mean [7, 11]: 36.56 ng/g
SMILES: CCCC[C@@H]1OC(=O)c2ccccc21 [(S)-NBP, (S)-butylphthalide]
- Dry weight of thrombus ([4]; 2 h after last dose): 7.44 ± 0.37
- Wet weight of thrombus ([4]; 2 h after last dose): 24.18 ± 1.02
- Inhibition rate (dry weight of thrombus) ([4]; vs model group): 25.95^## %
- Inhibition rate (wet weight of thrombus) ([4]; vs model group): 33.24^## %
- Cerebral edema (MCAO rats): 4.45 ± 4.58%
- Infarct volume (MCAO rats): 14.18 ± 2.69%
- Inhibition rate of cerebral edema (MCAO rats): 72.28%
- Inhibition rate of infarct volume (MCAO rats): 66.12%
- AUC(0-t) [5]: 32828.9 ng·h/mL and 40061.1 ng·h/mL and 34160.8 ng·h/mL
- AUC(0-∞) [5]: 32988.3 ng·h/mL and 40153.8 ng·h/mL and 34287.8 ng·h/mL
- Cl [5]: 12.631 mL/min/kg and 10.377 mL/min/kg and 12.152 mL/min/kg
- Cmax [5]: 52.5136 µg/mL and 69.7952 µg/mL and 65.7002 µg/mL
- Vz [5]: 3.704 L/kg and 2.6838 L/kg and 3.6105 L/kg
- Concentration in brain tissue (single rats) [6, 9]: 556.35 ng/g and 627.76 ng/g and 633.25 ng/g
- Concentration in brain tissue (single rats) [6, 10]: 131.66 ng/g and 119.84 ng/g and 388.42* ng/g
- Passage through the blood-brain barrier ([6]; detected in rat brain tissue after iv I1s): could all pass through the blood-brain barrier
- inhibition rate of hERG potassium channel at the maximum concentration [8]: 41.45%
